# Tests used:
# Sig-1R = biological target: T1, Sig-1R (Rattus norvegicus, UniProt Q9R0C9); conditions: rats; cited from earlier work
# T1 construct: host or cells: living rats
# [1] = system: Vimentin, Iba1 and IL-6 / MBP and MOG; assay: Gene-expression signature from RT-qPCR of cerebellum (inflammation/myelin ratio); format: in vivo, mice; conditions: donepezil vs vehicle
# Method: Total RNAs were isolated from cerebellum tissues using the Nucleospin® total RNA isolation kit (Macherey-Nagel, Germany). The concentrations of isolated RNA from each sample were assessed using a NanoDrop 2000 Spectrophotometer (Thermo Scientific, USA). 10 µL of the isolated RNA were equalized to 20 microlitres (µL) using RNase-free water. Then, the cDNA was synthesized by reverse transcription using the High-Capacity cDNA manufacture kit (Applied Biosystems™, Thermo Fisher Scientific, USA). Equal volumes of the isolated RNA and cDNA mastermix were mixed, centrifuged, and loaded in the thermal cycler (T100™, BIO-RAD, USA). The cDNA was diluted 1:2 with RNase-free water and stored at -20 deg.°C prior to qPCR analysis. The manufactured cDNA was amplified using multi-target qPCR. cDNA and PCR mastermix, containing the target and endogenous primers, as well as the Taqman mastermix, were loaded on a 96-well PCR fast plate (Thermo Fisher Scientific, USA) in an ice block. […] Gene expression data were analyzed using the Livak and Schmittgen (2001) ΔΔCt method, to produce a relative quantity (RQ) value of target gene expression relative to GAPDH expression as per formula in equations 1-3: (1) ΔCt=Ct target- Ct endogenous; (2) ΔΔCt= ΔCt sample- ΔCt control sample; (3) RQ=2-ΔΔCt.
# Data normality was assessed using the Shapiro-Wilk test. […]
# T1 sequence (Q9R0C9 whole entry): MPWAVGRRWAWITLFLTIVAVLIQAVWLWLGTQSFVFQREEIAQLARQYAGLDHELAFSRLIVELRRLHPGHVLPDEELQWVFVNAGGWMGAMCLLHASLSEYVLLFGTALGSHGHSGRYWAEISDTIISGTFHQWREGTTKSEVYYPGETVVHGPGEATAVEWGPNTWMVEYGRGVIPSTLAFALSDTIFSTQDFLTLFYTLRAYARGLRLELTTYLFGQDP
smiles,measurement,setting,value
"COc1cc2c(cc1OC)C(=O)C(CC1CCN(Cc3ccccc3)CC1)C2 (racemic) [donepezil, (RS)-2-[(1-Benzyl-4-piperidyl)methyl]-5,6-dimethoxy-2,3-dihydroinden-1-one]",dose corresponding to EC50 for receptor occupancy,Sig-1R,1.07 mg/kg
same,"gene-expression-signature (Vimentin, Iba1 and IL-6 divided by MBP and MOG)","[1]; twitcher mice, p=0.0016",significant decrease
same,"gene-expression-signature (Vimentin, Iba1 and IL-6 divided by MBP and MOG)","[1]; wild-type mice, p=0.2495",no significant difference
